Test results: US9611252B2 (LifeSci Pharmaceuticals, Inc., priority 2013, dated 2017)
Read-outs that look alike come from different tables or passages of the source.

Biological target: human Plasma Kallikrein (Homo sapiens (Human), UniProt P03952)
Assay: In vitro enzyme inhibition of human plasma kallikrein (PFR-AMC cleavage)
Type: biochemical
Method: The ability of the compounds disclosed herein to inhibit human plasma kallikrein activity was quantified according to the procedures below.
A 10 mM solution of the test compound was made in DMSO. […] A control tube containing only DMSO is included. 16 μL of each compound test solution was combined with 384 μL of assay buffer (50 mM Tris-HCl pH 7.5, 150 mM NaCl, 0.01% Triton X-100) to yield a “4× test compound buffer stock”.
These solutions are hereby referred to as 4×hPK and 2×PFR-AMC, respectively.
50 μL was removed from this mixture and placed into duplicate wells on a Microfluor 1Black U-bottom microtiter plate (Thermo Scientific). This plate was incubated for 5 minutes at 37° C. To each well, 50 μL of pre-warmed 2×PFR-AMC was added to start the enzymatic reaction. Cleavage of PFR-AMC was monitored in a Biotek Synergy H4 reader set at 37° C. Readings are taken every 43 seconds for 1 hour. […] The IC50 is calculated using the Gen5 (Biotek Instruments).
The ability of the compounds in Table 3 to inhibit human plasma kallikrein activity was determined.

[1] = human plasma kallikrein, Pro-Phe-Arg-AMC substrate, 37° C., read-out: hPK IC50

Sequence of human Plasma Kallikrein (P03952 20-638): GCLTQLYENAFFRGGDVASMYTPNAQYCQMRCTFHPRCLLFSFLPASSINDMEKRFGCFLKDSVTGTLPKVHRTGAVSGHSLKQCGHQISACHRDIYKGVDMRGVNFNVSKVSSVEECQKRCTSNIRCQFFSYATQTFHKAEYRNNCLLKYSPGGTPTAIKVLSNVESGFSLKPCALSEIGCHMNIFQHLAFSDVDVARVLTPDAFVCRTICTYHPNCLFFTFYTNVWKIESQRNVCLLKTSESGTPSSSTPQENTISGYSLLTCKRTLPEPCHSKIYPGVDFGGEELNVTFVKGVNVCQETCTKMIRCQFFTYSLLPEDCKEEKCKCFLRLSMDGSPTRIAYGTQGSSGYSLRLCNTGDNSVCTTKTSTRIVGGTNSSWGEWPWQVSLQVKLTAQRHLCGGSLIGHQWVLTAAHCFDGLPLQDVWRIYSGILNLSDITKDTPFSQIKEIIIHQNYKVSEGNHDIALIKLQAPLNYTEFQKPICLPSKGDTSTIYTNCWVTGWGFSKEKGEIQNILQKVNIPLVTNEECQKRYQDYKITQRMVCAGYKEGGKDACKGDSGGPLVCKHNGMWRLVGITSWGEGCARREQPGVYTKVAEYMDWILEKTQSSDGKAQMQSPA

`N#Cc1cc(Cc2cc(C(=O)NCc3ccc4[nH]cc(Cl)c4c3F)ccn2)cc2cc(Cl)cnc12` [Example 51, N-((3-chloro-4-fluoro-1H-indol-5-yl)methyl)-2-((3-chloro-8-cyanoquinolin-6-yl)methyl)isonicotinamide] showed an IC50 [1] of under 100 nM.

In the case of `N#Cc1cc(Cc2cc(C(=O)NCc3cc4cc[nH]c4cc3F)ccn2)cc2cc(Cl)cnc12` [Example 52, 2-((3-chloro-8-cyanoquinolin-6-yl)methyl)-N-((6-fluoro-1H-indol-5-yl)methyl)isonicotinamide], the IC50 [1] is reported as under 100 nM.

`Cc1cc(N)ncc1CNC(=O)c1ccnc(Cc2cc(C#N)c3ncc(Cl)cc3c2)c1` [Example 53, N-((6-amino-4-methylpyridin-3-yl)methyl)-2-((3-chloro-8-cyanoquinolin-6-yl)methyl)isonicotinamide] was tested, and the IC50 was 100 to 1000 nM.

With `N#Cc1cc(Cc2cc(C(=O)NCc3n[nH]c4ccc(Cl)cc34)ccn2)cc2cc(Cl)cnc12` [Example 54, 2-(3-chloro-8-cyano-quinolin-6-ylmethyl)-N-(5-chloro-1H-indazol-3-ylmethyl)-isonicotinamide] the IC50 [1] was under 100 nM.

With `N#Cc1cc(Cc2cc(C(=O)NCc3cnc4[nH]cc(Cl)c4c3)ccn2)cc2cc(Cl)cnc12` [Example 55, 2-(3-chloro-8-cyano-quinolin-6-ylmethyl)-N-(3-chloro-1H-pyrrolo[2,3-b]pyridin-5-ylmethyl)-isonicotinamide] the IC50 [1] was under 100 nM.

`Cc1cc(N)ncc1CNC(=O)c1ccnc(Cc2cc(C(N)=O)c3ncc(Cl)cc3c2)c1` [Example 63, 6-((4-(((6-amino-4-methylpyridin-3-yl)methyl)carbamoyl)pyridin-2-yl)methyl)-3-chloroquinoline-8-carboxamide] was tested, and the IC50 [1] was under 100 nM.

`Cc1cnc2c(C#N)cc(Cc3cc(C(=O)NCc4ccc5[nH]cc(Cl)c5c4F)ccn3)cc2c1` [Example 74, N-((3-chloro-4-fluoro-1H-indol-5-yl)methyl)-2-((8-cyano-3-methylquinolin-6-yl)methyl)isonicotinamide] was tested, and the IC50 [1] was under 100 nM.

Compound `Cc1cnc2c(C#N)cc(Cc3cc(C(=O)NCc4n[nH]c5ccc(Cl)cc45)ccn3)cc2c1` [Example 75, N-((5-chloro-1H-indazol-3-yl)methyl)-2-((8-cyano-3-methylquinolin-6-yl)methyl)isonicotinamide] has an IC50 [1] of under 100 nM.

Work on `Cc1cnc2c(C#N)cc(Cc3cc(C(=O)NCc4cc5cc[nH]c5cc4F)ccn3)cc2c1` [Example 76, 2-((8-cyano-3-methylquinolin-6-yl)methyl)-N-((6-fluoro-1H-indol-5-yl)methyl)isonicotinamide] yielded an IC50 [1] of under 100 nM.

Work on `Cc1cc(N)ncc1CNC(=O)c1ccnc(Cn2cc3cc(Cl)ccc3cc2=O)c1` [Example 85, N-((6-amino-4-methylpyridin-3-yl)methyl)-2-((7-chloro-3-oxoisoquinolin-2(3H)-yl)methyl)isonicotinamide] yielded an IC50 [1] of 100 to 1000 nM.

Compound `Cc1nc(N)ccc1CNC(=O)c1ccnc(Cn2cc3cc(Cl)ccc3cc2=O)c1` [Example 86, N-((6-amino-2-methylpyridin-3-yl)methyl)-2-((7-chloro-3-oxoisoquinolin-2(3H)-yl)methyl)isonicotinamide] has an IC50 [1] of 100 to 1000 nM.

`Cc1cc(N)nc(C)c1CNC(=O)c1ccnc(Cn2cc3cc(Cl)ccc3cc2=O)c1` [Example 87, N-((6-amino-2,4-dimethylpyridin-3-yl)methyl)-2-((7-chloro-3-oxoisoquinolin-2(3H)-yl)methyl)isonicotinamide] gave an IC50 [1] of 100 to 1000 nM.

With `O=C(NCc1cc2c(Cl)c[nH]c2cc1F)c1ccnc(Cn2cc3cc(Cl)ccc3cc2=O)c1` [Example 88, 2-((7-chloro-3-oxoisoquinolin-2(3H)-yl)methyl)-N-((3-chloro-6-fluoro-1H-indol-5-yl)methyl)isonicotinamide] the IC50 [1] was 100 to 1000 nM.

For `O=C(NCc1cc2c(Cl)c[nH]c2cc1F)c1ccnc(Cc2cc(F)c3ncc(Cl)cc3c2)c1` [Example 90, N-(3-chloro-6-fluoro-1H-indol-5-ylmethyl)-2-(3-chloro-8-fluoro-quinolin-6-ylmethyl)-isonicotinamide], the IC50 [1] was under 100 nM.
